Measurements published in ChEMBL document CHEMBL1201862, “PubChem BioAssay data set” (2004).
Active and inactive are the calls of the source.

Columns and labels:
[1] = molecular target: T1, Rac GTPase-activating protein 1 (Homo sapiens, UniProt Q9H0H5); assay: MgcRacGAP GTPase-activating activity inhibitors, confirmation, biochemical, ADP Hunter fluorescence, primary and confirmatory (AID 624330); format: functional
T1 sequence (Q9H0H5 whole entry): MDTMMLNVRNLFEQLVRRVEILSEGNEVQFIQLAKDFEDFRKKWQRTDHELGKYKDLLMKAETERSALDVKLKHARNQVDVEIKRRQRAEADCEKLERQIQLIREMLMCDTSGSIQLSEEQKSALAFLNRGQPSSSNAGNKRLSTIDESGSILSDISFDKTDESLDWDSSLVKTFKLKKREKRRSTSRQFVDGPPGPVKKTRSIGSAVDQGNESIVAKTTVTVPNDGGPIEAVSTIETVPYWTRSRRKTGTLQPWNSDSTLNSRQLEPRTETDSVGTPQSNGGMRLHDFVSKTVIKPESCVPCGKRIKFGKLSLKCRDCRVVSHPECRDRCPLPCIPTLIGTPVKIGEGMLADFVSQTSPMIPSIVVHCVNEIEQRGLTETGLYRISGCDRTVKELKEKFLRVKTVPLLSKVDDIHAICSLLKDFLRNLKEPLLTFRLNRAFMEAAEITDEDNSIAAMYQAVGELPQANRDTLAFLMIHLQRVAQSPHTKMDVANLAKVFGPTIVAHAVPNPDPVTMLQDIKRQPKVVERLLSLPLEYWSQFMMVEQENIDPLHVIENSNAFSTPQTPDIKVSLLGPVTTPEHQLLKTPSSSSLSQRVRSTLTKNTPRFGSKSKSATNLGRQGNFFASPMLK

[2] = molecular target: T2, High affinity choline transporter 1 (Homo sapiens, UniProt Q9GZV3); assay: CHT inhibitors, dose response, cell-based, 5-point CRC, membrane potential dye (AID 504840); format: functional
T2 sequence (Q9GZV3 whole entry): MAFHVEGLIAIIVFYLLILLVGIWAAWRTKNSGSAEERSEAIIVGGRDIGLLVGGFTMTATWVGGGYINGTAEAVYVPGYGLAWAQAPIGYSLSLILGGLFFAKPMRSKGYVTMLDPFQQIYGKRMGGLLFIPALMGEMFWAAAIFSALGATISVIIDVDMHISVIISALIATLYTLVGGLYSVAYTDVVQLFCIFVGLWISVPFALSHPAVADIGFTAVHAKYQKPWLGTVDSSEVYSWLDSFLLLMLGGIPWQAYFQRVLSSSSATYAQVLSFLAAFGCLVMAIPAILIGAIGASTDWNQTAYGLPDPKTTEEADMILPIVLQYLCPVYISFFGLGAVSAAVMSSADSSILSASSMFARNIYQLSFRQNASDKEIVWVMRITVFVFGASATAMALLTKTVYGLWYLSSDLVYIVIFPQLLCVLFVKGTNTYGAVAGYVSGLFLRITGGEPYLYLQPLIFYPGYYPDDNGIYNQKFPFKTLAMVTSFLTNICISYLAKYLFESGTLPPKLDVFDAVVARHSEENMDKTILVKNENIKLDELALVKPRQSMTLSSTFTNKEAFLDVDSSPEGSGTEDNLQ

[3] = molecular target: T3, Short transient receptor potential channel 4 (Mus musculus, UniProt Q9QUQ5); assay: mouse TRPC4 channel inhibitors, dose response, cell-based, HEK293 TRPC4/mu-opioid, Fluo-4 calcium (AID 434942); format: functional;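 note: potency of inhibitors blocking the TRPC4 calcium response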
T3 sequence (Q9QUQ5 whole entry): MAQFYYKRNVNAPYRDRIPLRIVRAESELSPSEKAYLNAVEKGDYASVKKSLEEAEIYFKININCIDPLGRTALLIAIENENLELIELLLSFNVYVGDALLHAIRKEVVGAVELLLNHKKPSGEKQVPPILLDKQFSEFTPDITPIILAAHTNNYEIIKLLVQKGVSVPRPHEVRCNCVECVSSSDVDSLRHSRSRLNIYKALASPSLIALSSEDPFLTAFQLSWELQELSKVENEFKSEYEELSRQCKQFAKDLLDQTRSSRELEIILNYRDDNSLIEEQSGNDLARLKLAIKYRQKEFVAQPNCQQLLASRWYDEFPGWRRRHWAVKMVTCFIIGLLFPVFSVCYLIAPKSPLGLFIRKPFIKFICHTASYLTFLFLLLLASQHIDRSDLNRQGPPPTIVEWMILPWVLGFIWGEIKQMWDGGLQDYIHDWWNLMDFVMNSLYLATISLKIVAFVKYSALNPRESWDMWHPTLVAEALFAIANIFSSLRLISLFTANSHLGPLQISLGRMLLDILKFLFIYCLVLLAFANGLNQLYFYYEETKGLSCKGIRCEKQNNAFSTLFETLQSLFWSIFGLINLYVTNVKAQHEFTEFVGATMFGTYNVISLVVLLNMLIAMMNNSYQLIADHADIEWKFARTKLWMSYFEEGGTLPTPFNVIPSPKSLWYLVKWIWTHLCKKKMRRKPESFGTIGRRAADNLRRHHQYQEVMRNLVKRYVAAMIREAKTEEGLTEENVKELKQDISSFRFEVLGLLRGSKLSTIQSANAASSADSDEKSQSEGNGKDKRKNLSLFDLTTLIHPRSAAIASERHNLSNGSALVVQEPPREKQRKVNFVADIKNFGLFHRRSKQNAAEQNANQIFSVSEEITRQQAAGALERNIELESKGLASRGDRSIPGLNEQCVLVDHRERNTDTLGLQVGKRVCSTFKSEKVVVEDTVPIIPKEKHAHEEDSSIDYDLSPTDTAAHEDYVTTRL

[4] = Luminescence Cell-Based Dose Retest to Confirm Inhibitors of Cancer Stem Cells. [Related pubchem assays (depositor defined):AID2717, AID2721]; format: functional; settings: Homo sapiens
[5] = molecular target: T4, Corticotropin-releasing factor receptor 2/Corticotropin-releasing factor-binding protein (Homo sapiens, UniProt P24387+Q13324); assay: activators of CRF receptor 2 with binding protein – uHTS hits, confirmation (AID 602473); format: functional; settings: read-out: EC50_Mean
T4 sequence (Q13324 whole entry): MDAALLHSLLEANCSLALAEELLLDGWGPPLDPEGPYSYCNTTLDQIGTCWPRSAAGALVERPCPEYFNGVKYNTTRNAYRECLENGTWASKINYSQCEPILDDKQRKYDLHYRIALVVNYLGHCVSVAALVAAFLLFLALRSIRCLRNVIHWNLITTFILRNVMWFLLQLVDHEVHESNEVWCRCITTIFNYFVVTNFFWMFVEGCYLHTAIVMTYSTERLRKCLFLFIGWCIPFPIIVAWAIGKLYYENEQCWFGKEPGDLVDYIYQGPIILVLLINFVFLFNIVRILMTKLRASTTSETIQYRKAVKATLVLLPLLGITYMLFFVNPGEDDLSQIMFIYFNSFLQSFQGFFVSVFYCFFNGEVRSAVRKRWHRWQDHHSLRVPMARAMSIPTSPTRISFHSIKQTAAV
T4 sequence (P24387 whole entry): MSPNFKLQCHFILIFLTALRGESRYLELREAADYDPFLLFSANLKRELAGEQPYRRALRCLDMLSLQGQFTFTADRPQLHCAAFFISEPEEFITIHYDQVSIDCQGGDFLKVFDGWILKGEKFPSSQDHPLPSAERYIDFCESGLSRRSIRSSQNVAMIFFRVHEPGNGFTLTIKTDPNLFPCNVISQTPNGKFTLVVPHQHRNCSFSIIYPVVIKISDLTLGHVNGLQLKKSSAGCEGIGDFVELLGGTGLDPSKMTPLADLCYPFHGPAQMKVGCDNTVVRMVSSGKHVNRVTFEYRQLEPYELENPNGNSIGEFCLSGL

[6] = molecular target: T4, Corticotropin-releasing factor receptor 2/Corticotropin-releasing factor-binding protein; assay: Dose Response confirmation of uHTS hits for small molecule antagonists of the CRF-binding protein and CRF-R2 receptor complex.; format: functional; settings: read-out: IC50_Mean
BJ [7] = assay: cells; format: functional, cell-based; settings: Homo sapiens
BJ [8] = assay: cytotoxicity toward BJ-TERT-LT-ST fibroblasts, dose response, cell-based, RAS-independent, luminescence (AID 1935); format: functional; settings: Homo sapiens;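 note: BJ fibroblasts immortalized with TERT plus LT and ST oncogenes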
BJ [9] = assay: cytotoxicity toward BJ-TERT fibroblasts, dose response, cell-based, RAS-independent, luminescence (AID 1933); format: functional; settings: Homo sapiens
[10] = cytotoxicity toward DRD oncogenic fibroblasts, dose response, cell-based, non-viral oncogenic, luminescence (AID 1934); format: functional; settings: Homo sapiens
[11] = cytotoxicity toward NIH3T3 fibroblasts, dose response, counter-screen, cell-based, ATP luminescence, mouse fibroblasts (AID 2010); format: functional;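 note: cells exposed to compound for about 90 hours before reading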
[12] = molecular target: Heat shock protein HSP 90-alpha (Homo sapiens, UniProt P07900); format: functional, organism-based
[13] = inhibitors of intracellular T. cruzi replication, confirmation, NIH3T3 host cells, beta-gal luminescence (AID 2044); format: functional, cell-based;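 note: intracellular parasites grown in NIH/3T3 mouse fibroblasts as host cells; luminescent beta-galactosidase reporter signal from transgenic T. cruzi replicating inside host cells; inhibitors lower the luminescence signal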
[14] = test system: Streptococcus sp. 'group A'; assay: growth inhibition of control SK(-) GAS strain, dose response, counter-screen for streptokinase expression inhibitor project, luminescence, kanamycin, BacTiterGlo, confirmation (AID 1900); format: functional, organism-based
Streptococcus = assay: Group A Streptococcus viability loss, dose response, counter-screen for streptokinase expression inhibitor project, luminescence, BacTiterGlo (AID 1915); format: functional, organism-based;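 note: potency for reduction of bacterial viability or growth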
Streptokinase A = molecular target: T5, Streptokinase A (Streptococcus pyogenes serotype M1, UniProt P10520); assay: S. pyogenes streptokinase expression inhibitors, potency, dose response, plasminogen activation absorbance, OD405 (AID 1914); format: functional, Streptococcus pyogenes M1 GAS;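 note: secreted streptokinase activity via plasminogen activation per viability signal from cell pellet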
T5 sequence (P10520 whole entry): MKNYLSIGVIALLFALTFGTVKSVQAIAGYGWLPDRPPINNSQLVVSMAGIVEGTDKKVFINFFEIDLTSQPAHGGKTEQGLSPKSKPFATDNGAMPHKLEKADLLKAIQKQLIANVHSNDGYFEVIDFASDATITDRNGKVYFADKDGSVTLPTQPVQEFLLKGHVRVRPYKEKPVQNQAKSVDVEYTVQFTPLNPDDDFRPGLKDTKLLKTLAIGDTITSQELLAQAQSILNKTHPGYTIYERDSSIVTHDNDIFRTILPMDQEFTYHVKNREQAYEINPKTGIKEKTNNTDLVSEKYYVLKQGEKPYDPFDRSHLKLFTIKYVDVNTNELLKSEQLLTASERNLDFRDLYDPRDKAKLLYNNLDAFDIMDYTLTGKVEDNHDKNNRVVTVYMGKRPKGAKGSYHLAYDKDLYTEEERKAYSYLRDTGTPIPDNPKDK

[15] = molecular target: Glyceraldehyde-3-phosphate dehydrogenase (Homo sapiens, UniProt P04406)
[16] = HEK293T cytotoxicity, dose response, cytotoxicity control for miR-122 modulator project, cell-based, inhibitor set, cherry-pick, set 2 (AID 720697); format: functional

Sequence of Glyceraldehyde-3-phosphate dehydrogenase (P04406 whole entry): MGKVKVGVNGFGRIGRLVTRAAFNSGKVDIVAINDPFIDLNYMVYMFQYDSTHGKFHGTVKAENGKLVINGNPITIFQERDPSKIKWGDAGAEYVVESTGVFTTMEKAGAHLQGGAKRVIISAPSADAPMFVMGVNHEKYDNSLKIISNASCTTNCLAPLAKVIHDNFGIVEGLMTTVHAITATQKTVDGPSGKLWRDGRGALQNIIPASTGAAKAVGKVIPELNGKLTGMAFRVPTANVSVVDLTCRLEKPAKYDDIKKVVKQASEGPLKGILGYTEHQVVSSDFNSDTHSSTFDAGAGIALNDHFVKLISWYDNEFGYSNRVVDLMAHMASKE

For COc1cccc(CNc2ccc(N3CCC(C)CC3)cc2)c1OC, the IC50 [1] was 7.86 µM (active) and the IC50 [2] was 13.2 µM (active).

For CCc1cc([N+](=O)[O-])cc(CC)c1N, the IC50 [2] was 13.8 µM (active).

For O=C(CN1CCCC1)Nc1ccc(Cl)cc1C(=O)c1ccccc1, the EC50 [3] was 1.5 µM (active) and the AC50 [4] was 16.1 µM (active).

With COCCN1CC(=O)N(c2cccc(C)c2C)C(c2ccc(Cl)cc2)C1=O (centres undefined) the EC50 [5] was > 53 µM (inactive) and the IC50 [6] was > 47.1 µM (inactive).

For CCC(C)NC(=O)Cn1cnc2sc(C)c(S(=O)(=O)N3CCCCC3)c2c1=O (centres undefined), the EC50 [5] was > 53 µM (inactive) and the IC50 [6] was > 47.1 µM (inactive).

For O=[N+]([O-])c1cccc(CSc2nnc3ccccn23)c1, the IC50 [2] was 16.6 µM (active).

In the case of N#CC1=C2SCC(O)(c3ccccc3)N2C(=O)CC1c1ccccc1 (centres undefined), the EC50 (BJ [7]) is reported as 51.4 µM (active), the EC50 (BJ [8]) is reported as 3.28 µM (active) and the EC50 (BJ [9]) is reported as 4.26 µM (active). The EC50 [10] was 3.01 µM (active).

For Cc1nn2c(NCc3ccccn3)cc(C(C)(C)C)nc2c1-c1ccccc1, the EC50 [11] was > 60 µM (not active), the AC50 [12] was 1.78 µM (active) and the EC50 [13] was 2.21 µM (active). For the same compound, the EC50 [14] was 3.41 µM (active), the EC50 (Streptococcus) was 5.79 µM (active) and the EC50 (Streptokinase A) was > 150 µM (not active).

For COc1cc2ccccc2cc1C(=O)Nc1ccc(S(=O)(=O)Nc2cc(C)on2)cc1, the IC50 [2] was 13.8 µM (active).

With O=C1C(Cl)=C(N2CCN(c3ccccc3)CC2)C(=O)N1c1ccnc(Cl)c1 the IC50 [15] was > 50 µM (inconclusive).

In the case of CCOC(=O)C1CN(S(=O)(=O)c2ccccc2)CCN1S(=O)(=O)c1ccccc1 (centres undefined), the AC50 [16] is reported as 1.54 µM (active).

In the case of CCn1cc(/C=C(\NC(=O)c2ccccc2F)C(=O)N2CCOCC2)c2ccccc21, the IC50 [2] is reported as 15.6 µM (active).
